System: A498 cells
Test: In vivo animal efficacy study, subcutaneous tumor fragment xenograft
Set-up: species or system female athymic nude mice
Conditions: sunitinib 20 mg/kg, bezafibrate 150 mg/kg, p.o. q.d. × 21
Experimental: Healthy 10 female athymic nude mice were recruited for the donor cell inoculation. Animals were subcutaneously injected at flank region with 10 million A498 cells suspended in 200 μl of media and matrigel. Animals were monitored for solid tumor growth. […] Tumors were fragmented in to ˜30 mg size. […] [table] The tumor sizes were measured weekly twice from the date of tumor appearance till the end of the experiment. Tumor size was measured by digital vernier caliper (MITUTOYO) by measuring length (L=longest axis) and width (W=shortest axis). Tumor Volume (V) was calculated using formula: […] Mean tumor volume and % tumor growth inhibition (% TGI) were then calculated (SEM=standard error of mean).

SMILES: CCN(CC)CCNC(=O)c1c(C)[nH]c(/C=C2\C(=O)Nc3ccc(F)cc32)c1C [Sunitinib]
- Tumor Growth Inhibition (Day 1): 1.47%
- Tumor Volume, Mean (Day 1): 145.40 mm^3
- Tumor Growth Inhibition (Day 6): 47.31%
- Tumor Volume, Mean (Day 6): 174.90 mm^3
- Tumor Growth Inhibition (Day 9): 43.52%
- Tumor Volume, Mean (Day 9): 261.95 mm^3
- Tumor Growth Inhibition (Day 13): 44.80%
- Tumor Volume, Mean (Day 13): 340.62 mm^3
- Tumor Growth Inhibition (Day 16): 53.39%
- Tumor Volume, Mean (Day 16): 448.05 mm^3
- Tumor Growth Inhibition (Day 20): 50.78%
- Tumor Volume, Mean (Day 20): 630.25 mm^3

Source: patent US10857113B2, “Bezafibrate for the treatment of cancer” (Cipla Limited, priority 2016, dated 2020)
